From US12714707B2, “Combination cancer therapy using CHK inhibitor” (SHANGHAI HUAYU BIOTECHNOLOGY CO., LTD., priority 2020, dated 2026)

Tests used:
Type in all cases: cell-based
BT474 [1] = assay: MTT cell death rate, BT474 cells, 605B with AZD2281 (Example 2); conditions: 48 hours; for Cell Death Rate/% 1: replicate 1; for Cell Death Rate/% 2: replicate 2; for Cell Death Rate/% 3: replicate 3
Description: (§1) Cell death rate was calculated by the following formula. Cell death rate=[1−(ODtest[…])]×100%
(§2) Cell death rates were analyzed using student's t-test, and group differences were deemed statistically significant when the p-value was lower than 0.05. Zheng-Jun Jin's Q value was calculated using the formula Q=EA+B/(EA+EB−EA×EB) to assess the combined effect of Compound 605B and the PARP inhibitor, wherein EA+B, EA, and EB referred to the cell death rates caused by the combined treatment, 605B treatment and PARP inhibitor treatment, respectively. A Q value higher than 1.15 meant a synergistic […] effect.
(§3) The combined use of Compound 605 and AZD2281 was further tested in other breast cancer cell lines, including BT474 (TCHu 143, National collection of Authenticated Cell Cultures), MCF7 (TCHu 74, National collection of Authenticated Cell Cultures), and MMTV-HER2 (a gift from Dr. Liguang-L, Shanghai Institute of Materia Medica, Chinese Academy of Sciences).
(§4) Briefly, these cells were cultured at 37° C. in 5% CO2 in RPMI 1640 medium supplemented with i) 10% FBS, ii) 1% penicillin and streptomycin, and iii) AZD2281 (final concentration at 800 nM), Compound 605B (final concentration at 25 nM), 605B+AZD2281 (final concentration at 25 nM and 800 nM), or PBS, for 48 hours. Then, cell viability was determined by a MTT assay. The test was done in triplicate.

MCF7 [2] = assay: MTT cell death rate, MCF7 cells, 605B with AZD2281 (Example 2); conditions: 48 hours; for Cell Death Rate/% 1: replicate 1; for Cell Death Rate/% 2: replicate 2; for Cell Death Rate/% 3: replicate 3
Description: as §1, §2, §3, §4

[3] = tested on: MCF7F cells (fulvestrant-resistant); assay: MTT cell viability / cell death rate, MCF7F cells (Example 1); conditions: 48 hours; for Cell Death Rate/% mean: mean of triplicate; for Cell Death Rate/% 1: replicate 1; for Cell Death Rate/% 2: replicate 2; for Cell Death Rate/% 3: replicate 3
Description: MCF7F cells (fulvestrant-resistant) were maintained at 37° C. in 5% CO2 in RPMI 1640 medium (10-040-CV, Coming cellgro) supplemented with 10% FBS (10270-106, GIBCO), 1% penicillin and 1% streptomycin, and used before the 10th subculture, wherein these cells were in house prepared by culturing MCF7 cells (TCHu 74, National Collection of Authenticated Cell Cultures) in medium containing 1 μM fulvestrant for approximately 18 months (Hong Liu et al., Cooperative effect of gefitinib and fumitremorgin c on cell growth and chemosensitivity in estrogen receptor alpha negative fulvestrant-resistant MCF-7 cells. Int J Oncol. 2006. 29(5):1237-1246).
Briefly, the MCF7F cells were cultured at 37° C. in 5% CO2 in RPMI 1640 medium supplemented with i) 10% FBS, ii) 1% penicillin and 1% streptomycin, and iii) AZD2281 (final concentration at 800 nM), ABT888 (final concentration at 800 nM), Compound 605B (final concentration at 25 nM), 605B+AZD2281 (final concentration at 25 nM and 800 nM), 605B+ABT888 (final concentration at 25 nM and 800 nM), or PBS (vehicle), for 48 hours. Then, cell viability was determined by a MTT assay. The test was done in triplicate.
as §1, §2

MMTV-HER2 [4] = assay: MTT cell death rate, MMTV-HER2 cells, 605B with AZD2281 (Example 2); conditions: 48 hours; for Cell Death Rate/% 1: replicate 1; for Cell Death Rate/% 2: replicate 2; for Cell Death Rate/% 3: replicate 3
Description: as §1, §2, §3, §4

MCF7 [5] = assay: MTT cell death rate, MCF7 cells, 605B with Rucaparib (Example 3); conditions: 48 hours; for Cell Death Rate/% 1: replicate 1; for Cell Death Rate/% 2: replicate 2; for Cell Death Rate/% 3: replicate 3
Description: as §1, §2
(§5) Compound 605B was tested with another PARP inhibitor, AG014699 (Rucaparib), for the inhibitory effects on breast tumor cell lines, including BT474, MCF7, and MMTV-HER2.
as §4, with “penicillin and 1% streptomycin, and” for “penicillin and streptomycin, and”, “determined by the MTT assay.” for “determined by a MTT assay.”

MMTV-HER2 [6] = assay: MTT cell death rate, MMTV-HER2 cells, 605B with Rucaparib (Example 3); conditions: 48 hours; for Cell Death Rate/% 1: replicate 1; for Cell Death Rate/% 2: replicate 2; for Cell Death Rate/% 3: replicate 3
Description: as §1, §2, §5
as §4, with “penicillin and 1% streptomycin, and” for “penicillin and streptomycin, and”, “determined by the MTT assay.” for “determined by a MTT assay.”

BT474 [7] = assay: MTT cell death rate, BT474 cells, 605B with Rucaparib (Example 3); conditions: 48 hours; for Cell Death Rate/% 1: replicate 1; for Cell Death Rate/% 2: replicate 2; for Cell Death Rate/% 3: replicate 3
Description: as §1, §2, §5
as §4, with “penicillin and 1% streptomycin, and” for “penicillin and streptomycin, and”, “determined by the MTT assay.” for “determined by a MTT assay.”

Compound: O=C(c1cc(Cc2n[nH]c(=O)c3ccccc23)ccc1F)N1CCN(C(=O)C2CC2)CC1 [AZD2281, Olaparib]
- Cell Death Rate/% mean (BT474 [1]; final concentration 800 nM): 5.28%
- Cell Death Rate/% 1 (BT474 [1]; final concentration 800 nM): 5.47%
- Cell Death Rate/% 2 (BT474 [1]; final concentration 800 nM): 5.1%
- Cell Death Rate/% 3 (BT474 [1]; final concentration 800 nM): 5.27%
- Cell Death Rate/% mean (MCF7 [2]; final concentration 800 nM): 5.34%
- Cell Death Rate/% 1 (MCF7 [2]; final concentration 800 nM): 5.34%
- Cell Death Rate/% 2 (MCF7 [2]; final concentration 800 nM): 5.39%
- Cell Death Rate/% 3 (MCF7 [2]; final concentration 800 nM): 5.66%
- Cell Death Rate/% mean ([3]; final concentration 800 nM): 5.55%
- Cell Death Rate/% 1 ([3]; final concentration 800 nM): 5.86%
- Cell Death Rate/% 2 ([3]; final concentration 800 nM): 5.42%
- Cell Death Rate/% 3 ([3]; final concentration 800 nM): 5.37%
- Cell Death Rate/% mean (MMTV-HER2 [4]; final concentration 800 nM): 8.28%
- Cell Death Rate/% 1 (MMTV-HER2 [4]; final concentration 800 nM): 8.34%
- Cell Death Rate/% 2 (MMTV-HER2 [4]; final concentration 800 nM): 8.46%
- Cell Death Rate/% 3 (MMTV-HER2 [4]; final concentration 800 nM): 8.05%

Compound: NC(=O)c1nnc(N[C@H]2CCCNC2)c2cc(-c3cccc(F)c3)sc12 [Compound 605B, 2-(3-fluorophenyl)-4-(3-piperidineamino)-thieno[2,3-d]pyridazine-7-carboxylic acid amide]
- Cell Death Rate/% mean (MCF7 [5]; final concentration 25 nM): 8.41%
- Cell Death Rate/% 1 (MCF7 [5]; final concentration 25 nM): 8.5%
- Cell Death Rate/% 2 (MCF7 [5]; final concentration 25 nM): 8.39%
- Cell Death Rate/% 3 (MCF7 [5]; final concentration 25 nM): 8.33%
- Cell Death Rate/% mean (MMTV-HER2 [6]; final concentration 25 nM): 9.11%
- Cell Death Rate/% 1 (MMTV-HER2 [6]; final concentration 25 nM): 9.13%
- Cell Death Rate/% 2 (MMTV-HER2 [6]; final concentration 25 nM): 8.90%
- Cell Death Rate/% 3 (MMTV-HER2 [6]; final concentration 25 nM): 9.29%
- Cell Death Rate/% mean (BT474 [1]; final concentration 25 nM): 7.67%
- Cell Death Rate/% 1 (BT474 [1]; final concentration 25 nM): 7.72%
- Cell Death Rate/% 2 (BT474 [1]; final concentration 25 nM): 7.45%
- Cell Death Rate/% 3 (BT474 [1]; final concentration 25 nM): 7.83%
- Cell Death Rate/% mean (MCF7 [2]; final concentration 25 nM): 6.51%
- Cell Death Rate/% 1 (MCF7 [2]; final concentration 25 nM): 6.51%
- Cell Death Rate/% 2 (MCF7 [2]; final concentration 25 nM): 6.38%
- Cell Death Rate/% 3 (MCF7 [2]; final concentration 25 nM): 6.72%
- Cell Death Rate/% mean (BT474 [7]; final concentration 25 nM): 8.47%
- Cell Death Rate/% 1 (BT474 [7]; final concentration 25 nM): 8.49%
- Cell Death Rate/% 2 (BT474 [7]; final concentration 25 nM): 8.24%
- Cell Death Rate/% 3 (BT474 [7]; final concentration 25 nM): 8.67%
- inhibitory effects on cells / cell death rates (in words) [3]: little inhibitory effects
- Cell Death Rate/% mean ([3]; final concentration 25 nM): 4.97%
- Cell Death Rate/% 1 ([3]; final concentration 25 nM): 5.03%
- Cell Death Rate/% 2 ([3]; final concentration 25 nM): 5.22%
- Cell Death Rate/% 3 ([3]; final concentration 25 nM): 4.67%
- Cell Death Rate/% mean (MMTV-HER2 [4]; final concentration 25 nM): 8.50%
- Cell Death Rate/% 1 (MMTV-HER2 [4]; final concentration 25 nM): 8.69%
- Cell Death Rate/% 2 (MMTV-HER2 [4]; final concentration 25 nM): 8.33%
- Cell Death Rate/% 3 (MMTV-HER2 [4]; final concentration 25 nM): 8.47%

Compound: CNCc1ccc(-c2[nH]c3cc(F)cc4c3c2CCNC4=O)cc1 [Rucaparib]
- Cell Death Rate/% mean (MCF7 [5]; final concentration 800 nM): 6.66%
- Cell Death Rate/% 1 (MCF7 [5]; final concentration 800 nM): 6.88%
- Cell Death Rate/% 2 (MCF7 [5]; final concentration 800 nM): 6.46%
- Cell Death Rate/% 3 (MCF7 [5]; final concentration 800 nM): 6.65%
- Cell Death Rate/% mean (MMTV-HER2 [6]; final concentration 800 nM): 7.50%
- Cell Death Rate/% 1 (MMTV-HER2 [6]; final concentration 800 nM): 7.54%
- Cell Death Rate/% 2 (MMTV-HER2 [6]; final concentration 800 nM): 7.68%
- Cell Death Rate/% 3 (MMTV-HER2 [6]; final concentration 800 nM): 7.29%
- Cell Death Rate/% mean (BT474 [7]; final concentration 800 nM): 7.60%
- Cell Death Rate/% 1 (BT474 [7]; final concentration 800 nM): 7.63%
- Cell Death Rate/% 2 (BT474 [7]; final concentration 800 nM): 7.77%
- Cell Death Rate/% 3 (BT474 [7]; final concentration 800 nM): 7.39%

Compound: C[C@]1(c2nc3c(C(N)=O)cccc3[nH]2)CCCN1 [ABT888, Veliparib]
- Cell Death Rate/% mean ([3]; final concentration 800 nM): 4.63%
- Cell Death Rate/% 1 ([3]; final concentration 800 nM): 4.69%
- Cell Death Rate/% 2 ([3]; final concentration 800 nM): 4.28%
- Cell Death Rate/% 3 ([3]; final concentration 800 nM): 4.93%
